Entries after “also recorded” stand apart in the source; their conditions may differ.
Columns and labels:
[1] = system: serum deprived human primary neurons; test: Neuritic beading in serum-deprived human primary neurons; format: cell-based
Method: FIG. 13: VX-765 protects CNS primary human neurons (HPN) against APP- or serum deprivation-mediated neuritic beading. (a) MTT assay with increasing dose of VX-765. (b) Fluorescent micrographs showing homogeneous distribution of EGFP in normal neurons and neuritic beading in APP-transfected neurons. (c) Percentage beading in APP-transfected or serum-deprived neurons treated 1 h before and continuously with stressor (Pre-treatment) or 48 h after stressor (post-beading treatment) with 25 or 50 μM VX-765 or with 5 μM Z-YVAD-fmk Casp1 peptide inhibitor. […] (d-e) HPN secreted or cellular Aβ42/total Aβ38+40+42 (d) (F(3,4)=12.73, p=0.0163, ANOVA, Dunnett's post-hoc compared to Serum+DMSO, *p<0.05), and (e) levels of secreted II-1β, IFN-γ, TNF-α, and II-6 from untreated (+S), serum deprived (−S), or serum-deprived human neurons treated with 25 or 50 μM VX-765.
EGFP-labeled human primary neurons were either APP^WT transfected or serum deprived. Two treatment strategies were employed to determine VX-765's effects on neuronal degeneration: our Pre-Treatment strategy looked at whether VX-765 could block neuronal degeneration when administered 1 hr prior to APP^WT transfection or serum deprivation, while our Reversal Treatment strategy looked at whether VX-765 could reverse degenerative effects when administered 48 hrs after APP^WT transfection or serum deprivation. Neurons displaying beaded morphology were counted with live imaging and measured as a percentage of the total number of eGFP+ neurons from 24-72 hrs after treatment. The irreversible caspase-1 inhibitor YVAD-fmk was used as positive control in our experiments. Results were obtained from averaging counts for at least 100 eGFP+ neurons per experiment in three independent neuron preparations.

[2] = system: J20 mice; test: APP, Casp1, Casp6, IDE and neprilysin expression, treated symptomatic J20 mice; format: in vivo, mouse; details: RT-PCR, J20 brains, preliminary
Text: FIG. 5: Western blot against the C-terminus (C11) and Aβ (6E10) regions of APP in TREATMENT mice groups before washout.
FIG. 11: VX-765 prevents the progression of Aβ in J20 mice. (a) Aβ immunohistographs of the stratum lacunosum molecular layer of the hippocampus and S1 cortex of pre-treated 5-month old J20 (baseline) and 8-month old vehicle- or VX-765-treated WT or J20 mice with anti-F2576 antiserum (Scale bar=50 μm). (b) Quantitative analysis comparing Aβ immunostaining density between J20+Vehicle (n=5) and J20+VX-765 (n=4) mice in the hippocampus from the pyramidal cell layer to the stratum lacunosum molecular layer (p=0.0029) and cortex (p=0.0314, unpaired t test). (c) Quantitative analysis comparing RIPA-soluble Aβ42 over total Aβ (Aβ38+Aβ40+Aβ42) levels in pre-treated 5-month old J20, 8-month old vehicle- or VX-765 treated J20 mice hippocampus (F(2,9)=6.614, p=0.0171, ANOVA, Tukey's post-hoc, * p<0.05). No ELISA signal was obtained from WT mice brains. (d) RIPA-soluble total Aβ measured by ELISA in pg/mg brain tissue. (e,f) Formic acid soluble Aβ42 over total Aβ (Aβ38+Aβ40+Aβ42) (e) and total Aβ (f) levels measured by ELISA in pg/mg brain tissue. Student t-test used to assess difference between J20+vehicle and J20+VX-765. (g,h,i) RIPA-soluble and (j,k,l) formic acid soluble Aβ38, Aβ40, and Aβ42 measured by ELISA in pg/mg brain tissue. […]

[3] = system: J20 mice; test: GFAP astrogliosis, treated symptomatic J20 mice brains; format: in vivo, mouse; details: 50 mg/kg
Text: FIG. 18: ELISA measures of cytokines in vehicle-treated WT and J20 mice and VX-765-treated J20 mice. (a) Plasma levels of II-1β in mice after T3. (b) Cytokine levels in vehicle-treated WT and J20 and in VX-765-treated J20 brain hippocampi and cortex. (c) GFAP immunostaining density in vehicle-treated WT (n=6) and J20 (n=5) and in VX-765-treated J20 (n=4) brain hippocampi (F(2,12)=5.234, p=0.0232, ANOVA, Dunnett's post-hoc compared to WT+Vehicle, *p<0.05) and cortex. (d) Western blots and quantitative analyses of GFAP in vehicle-treated WT and J20 and in VX-765-treated J20 brain hippocampi and cortex.
To assess AD-like pathology, immunohistochemical analyses were performed to detect amyloid deposition (anti-AβF25276)^5,6, microglial (Iba1) activation^7, astrogliosis (GFAP), synaptophysin protein levels on coronal brain sections. Multiplex MSD ELISA was used to assess Aβ levels and 38,40, and 42 subtypes, and II-1β brain levels. RT-PCR was used to assess levels of human APP^Sw/Ind.

[4] = system: human Casp2 to 10; test: Selectivity against human Casp2 to 10; format: biochemical; details: recombinant caspases
Method: (§1) FIG. 14: Selectivity and blood brain permeability of VX-765 and VRT-043198. (a-b) IC50 of VX-765 (a) and VRT-043198 (b) against human Casp1-10. (c-d) IC50 of VX-765 (c) and VRT-043198 (d) against mouse Casp1 and Casp11. (e) Blood brain barrier permeability and presence of VX-765 and VRT-043198 in 3 wild type and 4 J20 mice brain cortex and hippocampus and in plasma. Ratios of brain levels to plasma levels are calculated.

[5] = system: J20 mice; test: Open field, preventive treatment of pre-symptomatic J20 mice; format: in vivo, mouse
Method: FIG. 21: Open-field assessment to assess hyperactivity in J20 mice. Mice were treated with vehicle (WT and J20) or 50 mg/kg VX-765 (J20) at 2 months of age for 1 month (3 injections per week×4 weeks=12 injections). Hyperactivity was assessed by measuring the distance travelled (a), the number of quadrant entries (b), and the % time moving (c), while anxiety was assessed by the % time spent in periphery (d).
Studies are done on 8 (pre-symptomatic) week old J20 and littermate WT controls injected with 50 mg/Kg VX-765 or vehicle. The 8 week old mice are injected for 4 weeks (3 injections per week) and monitored for memory deficits at 16 weeks of age and every 4 weeks thereafter until the mice reach 8 months of age. VX-765 delays the onset of cognitive deficits by at least 5 months in the J20 mouse.
We directly tested whether pre-symptomatic inhibition of inflammation in a mouse genetic model of Alzheimer disease can stem the progression of memory and behavioral deficits, and Alzheimer disease-like pathology. The J20 amyloid precursor protein Swedish/Indiana mutant mouse was treated at 2 months of age for a one month period with 50 mg/Kg Caspase-1 inhibitor VX-765 (FIG. 22a).

[6] = Blood brain barrier permeability, brain and plasma levels; format: in vivo, mouse; details: WT and J20 mice
Method: as §1

**Q.** Which results are given for `CCO[C@@H]1OC(=O)C[C@@H]1NC(=O)[C@@H]1CCCN1C(=O)[C@@H](NC(=O)c1ccc(N)c(Cl)c1)C(C)(C)C` [VX-765, (S)-1-((S)-2-{[1-(4-amino-3-chloro-phenyl)-methanoyl]-amino}-3,3-dimethyl-butanoyl)-pyrrolidine-2-carboxylic acid ((2R,3S)-2-ethoxy-5-oxo-tetrahydro-furan-3-yl)-amide]?
**A.** neuritic beading ([1]; pre-treatment 1 h before serum deprivation): particularly effective in reducing neuritic beading at 72 hrs; also recorded: protected against, albeit less strongly; neuritic beading ([1]; reversal treatment 48 hrs after serum deprivation): neither YVAD nor VX-765 were able to reverse neuritic beading; Casp1 and Casp6 mRNA [2]: reduction; GFAP astrogliosis in cortex and hippocampus ([3]; after Treatment 3): almost returned to WT levels; GFAP in cortex ([3]; densitometry, 12 injections): reduced in VX-765-treated J20 cortex, but the data did not reach statistical significance; inhibition of human Casp1 relative to human Casp2 to 10 [4]: potently and specifically inhibited; open field hyperactivity (distance travelled, quadrant entries) ([5]; 4 months of age (4 week washout)): normal behavior at 4 months of age; also recorded: behave as the vehicle-treated WT mice; open field hyperactivity ([5]; 5 months of age (8 week washout) and thereafter): hyperactivity returned by 5 months of age; also recorded: lost at the 8 week washout assessment and thereafter; % time of movement ([5]; 8 week to 20 week washout): did not alter; blood brain barrier crossing [6]: crossed the blood brain barrier; concentrations in hippocampus and cortex [6]: reached physiologically active concentrations; metabolism of the pro-drug [6]: metabolized into VRT-043198

From patent publication US11160788B2, “Caspase-1 inhibition and uses thereof for prevention and treatment of neurological conditions” (priority 2016, dated 2021)
